This note sets out measurements from US8765746B2 (Millennium Pharmaceuticals, Inc., priority 2010, dated 2014).

Where only a bound is given, the exact number is not on record here.

What all share (type): biochemical
In assay [1] the target is T1, PI3Kbeta (Homo sapiens, UniProt P42338).
T1 construct: His (N); host or cells: SF9 insect cells (baculovirus)
The assay is described as follows: Human PI3K beta enzyme assay (HTRF, as for PI3K alpha). The conditions noted are these: for inhibition at 1.11 µM: read-out: PI3Kbeta % inh; for IC50: read-out: IC50 (inhibit PI3Kbeta); for inhibition at 1.11 µM / PI3Kbeta % inh: at 1.11 μM. The method in brief: (§1)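 N-His p110β/δ co-expressed with untagged p85 in Sf9, p110γ alone. Enzyme 5.25 nM (β), 0.75 nM (δ), 5 nM (γ), with ATP 25 uM and di-C8 PI(4,5)P2 3.5 uM (added-solution levels), pH 7.00, 30 min RT. HTRF read-out: biotin-PIP3, GST-GRP-1 PH domain, Eu anti-GST, streptavidin-XL.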

Assay [2] deals with T2, PI3Kgamma (Homo sapiens, UniProt P48736).
T2 construct: His (N); host or cells: SF9 insect cells (baculovirus)
T2 sequence (P48736 whole entry): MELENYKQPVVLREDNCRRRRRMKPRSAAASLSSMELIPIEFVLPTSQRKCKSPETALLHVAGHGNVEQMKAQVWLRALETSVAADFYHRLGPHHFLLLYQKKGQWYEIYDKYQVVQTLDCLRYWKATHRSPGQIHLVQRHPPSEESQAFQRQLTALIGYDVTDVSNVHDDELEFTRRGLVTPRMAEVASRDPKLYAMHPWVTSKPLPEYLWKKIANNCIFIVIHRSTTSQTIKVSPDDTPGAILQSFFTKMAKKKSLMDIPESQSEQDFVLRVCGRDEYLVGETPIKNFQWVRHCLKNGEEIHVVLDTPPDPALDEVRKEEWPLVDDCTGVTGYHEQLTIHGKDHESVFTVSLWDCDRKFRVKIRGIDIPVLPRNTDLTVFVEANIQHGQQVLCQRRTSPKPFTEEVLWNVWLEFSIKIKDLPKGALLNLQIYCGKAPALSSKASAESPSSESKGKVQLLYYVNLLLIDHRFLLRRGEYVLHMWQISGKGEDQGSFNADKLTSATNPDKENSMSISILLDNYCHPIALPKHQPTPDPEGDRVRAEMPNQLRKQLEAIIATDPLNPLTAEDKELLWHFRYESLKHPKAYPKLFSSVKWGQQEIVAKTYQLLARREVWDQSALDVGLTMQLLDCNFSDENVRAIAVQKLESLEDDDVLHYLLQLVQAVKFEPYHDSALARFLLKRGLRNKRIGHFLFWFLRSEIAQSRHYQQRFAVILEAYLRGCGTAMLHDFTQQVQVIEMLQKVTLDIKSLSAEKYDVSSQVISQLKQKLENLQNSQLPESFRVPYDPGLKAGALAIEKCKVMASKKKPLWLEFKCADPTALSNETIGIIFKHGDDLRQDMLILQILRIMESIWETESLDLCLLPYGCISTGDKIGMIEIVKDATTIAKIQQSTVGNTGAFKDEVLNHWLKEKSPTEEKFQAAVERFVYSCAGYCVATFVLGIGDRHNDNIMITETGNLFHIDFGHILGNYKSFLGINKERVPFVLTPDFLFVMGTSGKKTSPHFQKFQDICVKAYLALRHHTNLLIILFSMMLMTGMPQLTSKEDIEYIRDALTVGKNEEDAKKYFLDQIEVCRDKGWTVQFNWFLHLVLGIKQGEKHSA
Description: Human PI3K gamma enzyme assay (HTRF, as for PI3K alpha). The settings on record: for inhibition at 1.11 µM: read-out: PI3Kgamma % inh; for PI3Kgamma % inh: at 1.11 μM. The method in brief: as §1

Assay [3] addresses T3, PI3Kdelta (Homo sapiens, UniProt O00329).
T3 construct: His (N); host or cells: SF9 insect cells (baculovirus)
Description: Human PI3K delta enzyme assay (HTRF, as for PI3K alpha). The conditions noted are these: for inhibition at 1.11 µM: read-out: PI3Kdelta % inh; for PI3Kdelta % inh: at 1.11 μM. The method, boiled down: as §1
For orientation: Time-resolved FRET reads energy transfer from a long-lived donor to a nearby acceptor.

In assay [4] the target is T4, VPS34 (Homo sapiens, UniProt Q8NEB9).
T4 construct: GST (N); host or cells: SF9 insect cells (baculovirus)
T4 sequence (Q8NEB9 whole entry): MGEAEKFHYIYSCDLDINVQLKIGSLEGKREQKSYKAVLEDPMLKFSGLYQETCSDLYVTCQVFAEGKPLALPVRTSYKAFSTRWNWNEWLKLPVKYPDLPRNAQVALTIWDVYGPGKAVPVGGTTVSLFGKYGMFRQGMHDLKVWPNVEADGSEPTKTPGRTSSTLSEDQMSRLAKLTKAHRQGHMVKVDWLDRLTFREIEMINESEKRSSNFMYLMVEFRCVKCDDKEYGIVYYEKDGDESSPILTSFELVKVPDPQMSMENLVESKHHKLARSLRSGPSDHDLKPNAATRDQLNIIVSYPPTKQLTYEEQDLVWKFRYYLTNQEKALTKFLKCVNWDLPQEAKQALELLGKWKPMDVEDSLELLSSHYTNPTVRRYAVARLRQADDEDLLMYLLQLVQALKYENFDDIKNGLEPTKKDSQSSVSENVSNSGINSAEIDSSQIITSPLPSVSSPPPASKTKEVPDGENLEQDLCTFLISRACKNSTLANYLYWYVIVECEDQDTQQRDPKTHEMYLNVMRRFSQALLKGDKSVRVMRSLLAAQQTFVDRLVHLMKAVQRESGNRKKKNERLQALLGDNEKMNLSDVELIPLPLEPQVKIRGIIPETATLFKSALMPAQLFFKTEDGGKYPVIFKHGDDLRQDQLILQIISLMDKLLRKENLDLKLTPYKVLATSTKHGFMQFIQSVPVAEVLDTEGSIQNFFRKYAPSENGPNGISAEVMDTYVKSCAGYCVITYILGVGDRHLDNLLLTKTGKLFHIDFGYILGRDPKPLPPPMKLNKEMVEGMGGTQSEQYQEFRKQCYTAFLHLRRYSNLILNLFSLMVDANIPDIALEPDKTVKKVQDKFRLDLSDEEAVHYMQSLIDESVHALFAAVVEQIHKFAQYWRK
The assay is described as follows: Human VPS34 enzyme assay (Adapta Universal Kinase Assay). The settings on record: for inhibition at 1.11 µM: 1 h, read-out: VPS34 % ihn; for VPS34 % ihn: at 1.11 μM. How it is done: VPS34 (accession number GB:BC033004) is cloned into pDEST20-Thombin as N-terminal GST tagged fusion proteins using the Gateway system (Invitrogen, catalog#11804-013). The sequences are verified before recombinant protein expression using the Baculovirus Expression System with Gateway® Technology.
For expression VPS34 was infected at 1MOI in SF9 cells and harvested 72 hours post infection.
For purification, VPS34 is purified by Glutathione Sepharose 4 Fast Flow (GE Healthcare #17-5132-03) followed by HiTrap Q (GE Healthcare #17-1153-01).
3) VPS34 is assayed using Adapta™ Universal Kinase Assay Kit (Invitrogen).
4) Human VPS34 enzyme assay method
100 mL compounds in DMSO are added to wells of a 384 well microtitre plate (Greiner 780076). At room temperature: 5 ul VPS34 reaction buffer (Invitrogen Assay Buffer Q (diluted 1 in 5 with nanopure water) plus 2 mM DTT and 2 mM MnCl2) containing ATP (20 uM, Promega) and 200 uM PI-PS substrate (Invitrogen PV5122) is added followed immediately by 5 ul VPS34 reaction buffer (as above) containing VPS34 (5 nM, Millennium Protein Sciences Group) and the mixture is incubated with shaking at room temperature for 1 hour. Then 5 ul VPS34 stop-detect mix (as per Invitrogen Adapta Assay kit (PV5009) instructions (contains kinase quench buffer, TR-FRET buffer, Adapta Eu anti-ADP antibody and Alexa Fluor 647 ADP tracer)) is added to quench the reaction. The plates are then incubated for 30 minutes at room temperature with shaking and then read on a BMG PheraStar Plus reader.

Assay [5] has as its target T5, PI3Kalpha (Homo sapiens, UniProt P42336).
T5 construct: His (N); host or cells: SF9 insect cells (baculovirus)
The assay is described as follows: Human PI3Kα enzyme assay (HTRF). The conditions noted are these: for inhibition at 1.11 µM: read-out: PI3Kalpha % inh; for PI3Kalpha % inh: at 1.11 μM. The method in brief:
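His-tagged p110α co-expressed with p85 in Sf9 cells was reacted for 30 min at room temperature in pH 7.00 Hepes buffer with 10 mM MgCl2. Addition solutions held 25 uM ATP, 3.5 uM di-C8 PI(4,5)P2 and 0.4875 nM enzyme. The reaction was quenched with EDTA/biotin-PIP3 and detected by HTRF (GST-GRP-1 PH domain, streptavidin-XL, Eu anti-GST) after 1 h.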

T3 sequence (O00329 whole entry): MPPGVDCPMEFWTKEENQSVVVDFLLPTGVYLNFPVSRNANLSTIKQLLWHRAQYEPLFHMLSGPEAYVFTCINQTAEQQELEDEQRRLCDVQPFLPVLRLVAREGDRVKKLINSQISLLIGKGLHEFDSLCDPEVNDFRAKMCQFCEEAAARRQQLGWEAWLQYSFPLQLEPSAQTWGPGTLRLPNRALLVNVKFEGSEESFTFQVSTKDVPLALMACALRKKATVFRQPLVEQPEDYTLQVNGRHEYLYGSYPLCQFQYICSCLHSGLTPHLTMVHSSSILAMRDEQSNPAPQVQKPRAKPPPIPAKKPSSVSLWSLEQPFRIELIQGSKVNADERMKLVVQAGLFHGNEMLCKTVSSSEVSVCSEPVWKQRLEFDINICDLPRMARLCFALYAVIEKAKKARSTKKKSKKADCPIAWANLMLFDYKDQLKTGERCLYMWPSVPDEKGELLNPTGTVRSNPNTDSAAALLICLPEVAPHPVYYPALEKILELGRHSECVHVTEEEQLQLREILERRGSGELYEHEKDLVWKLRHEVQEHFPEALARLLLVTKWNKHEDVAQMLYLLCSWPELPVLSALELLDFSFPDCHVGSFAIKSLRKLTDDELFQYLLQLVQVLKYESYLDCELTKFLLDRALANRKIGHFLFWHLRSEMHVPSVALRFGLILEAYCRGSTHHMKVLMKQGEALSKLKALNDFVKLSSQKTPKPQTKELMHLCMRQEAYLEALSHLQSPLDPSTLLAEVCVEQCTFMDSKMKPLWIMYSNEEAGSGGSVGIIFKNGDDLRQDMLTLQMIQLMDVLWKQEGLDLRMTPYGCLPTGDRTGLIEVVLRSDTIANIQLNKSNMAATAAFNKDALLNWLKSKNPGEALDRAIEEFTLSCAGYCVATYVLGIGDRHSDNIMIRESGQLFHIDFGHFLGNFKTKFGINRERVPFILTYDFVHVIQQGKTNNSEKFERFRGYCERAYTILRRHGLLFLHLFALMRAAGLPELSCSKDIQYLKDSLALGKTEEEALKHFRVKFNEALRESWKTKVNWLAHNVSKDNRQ
T3 sequence (P27986 whole entry partner): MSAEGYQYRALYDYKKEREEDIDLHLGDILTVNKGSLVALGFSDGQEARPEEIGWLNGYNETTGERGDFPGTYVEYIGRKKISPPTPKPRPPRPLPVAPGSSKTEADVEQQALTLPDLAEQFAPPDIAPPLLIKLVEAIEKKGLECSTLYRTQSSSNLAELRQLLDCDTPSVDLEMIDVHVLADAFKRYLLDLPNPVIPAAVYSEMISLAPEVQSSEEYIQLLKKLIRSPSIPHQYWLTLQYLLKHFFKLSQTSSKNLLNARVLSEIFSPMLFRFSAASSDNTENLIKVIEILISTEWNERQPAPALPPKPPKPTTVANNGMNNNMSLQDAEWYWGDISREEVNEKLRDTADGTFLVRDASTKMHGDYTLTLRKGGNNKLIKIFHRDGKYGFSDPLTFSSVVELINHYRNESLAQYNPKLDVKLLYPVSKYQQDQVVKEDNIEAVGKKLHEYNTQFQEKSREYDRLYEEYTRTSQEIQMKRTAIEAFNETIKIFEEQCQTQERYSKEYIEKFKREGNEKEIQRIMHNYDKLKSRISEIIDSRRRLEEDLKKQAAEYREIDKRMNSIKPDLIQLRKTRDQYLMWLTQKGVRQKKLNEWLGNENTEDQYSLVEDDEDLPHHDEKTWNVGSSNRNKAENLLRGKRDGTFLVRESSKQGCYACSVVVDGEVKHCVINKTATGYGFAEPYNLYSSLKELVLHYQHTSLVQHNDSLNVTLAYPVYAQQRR
T5 sequence (P42336 whole entry): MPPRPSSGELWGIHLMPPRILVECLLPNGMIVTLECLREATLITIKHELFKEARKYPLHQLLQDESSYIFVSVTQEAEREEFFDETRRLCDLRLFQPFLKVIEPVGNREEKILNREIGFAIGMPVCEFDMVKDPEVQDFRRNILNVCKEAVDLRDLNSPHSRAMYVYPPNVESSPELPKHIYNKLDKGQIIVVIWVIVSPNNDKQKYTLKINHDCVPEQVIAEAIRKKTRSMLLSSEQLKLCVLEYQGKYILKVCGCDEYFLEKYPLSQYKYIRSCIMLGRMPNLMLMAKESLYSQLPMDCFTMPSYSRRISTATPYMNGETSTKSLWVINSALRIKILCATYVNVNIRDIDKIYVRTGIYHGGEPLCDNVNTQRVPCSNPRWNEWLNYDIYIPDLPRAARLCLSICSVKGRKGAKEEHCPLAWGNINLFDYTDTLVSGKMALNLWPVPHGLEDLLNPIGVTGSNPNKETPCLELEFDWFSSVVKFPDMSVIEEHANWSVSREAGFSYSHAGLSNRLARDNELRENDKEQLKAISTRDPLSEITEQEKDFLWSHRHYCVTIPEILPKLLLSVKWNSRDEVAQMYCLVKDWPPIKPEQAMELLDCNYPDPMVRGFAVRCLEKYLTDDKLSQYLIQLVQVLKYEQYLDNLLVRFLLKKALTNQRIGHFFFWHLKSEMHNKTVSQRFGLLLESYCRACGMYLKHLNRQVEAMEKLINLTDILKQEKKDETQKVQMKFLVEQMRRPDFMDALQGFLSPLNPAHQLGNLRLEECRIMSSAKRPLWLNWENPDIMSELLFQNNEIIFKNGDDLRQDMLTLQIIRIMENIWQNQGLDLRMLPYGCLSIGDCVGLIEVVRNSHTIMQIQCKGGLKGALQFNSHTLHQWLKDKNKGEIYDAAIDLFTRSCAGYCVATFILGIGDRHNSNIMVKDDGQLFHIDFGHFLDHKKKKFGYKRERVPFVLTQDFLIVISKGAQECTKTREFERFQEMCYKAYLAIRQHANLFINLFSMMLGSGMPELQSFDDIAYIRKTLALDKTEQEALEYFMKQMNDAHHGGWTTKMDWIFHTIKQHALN
T5 sequence (P27986 whole entry partner): as the sequence (P27986 whole entry partner) above

By IC50 is commonly meant the concentration at which inhibition is half-maximal. For `Cc1nn2ccccc2c1-c1nc2c(s1)NC(=O)CCC2c1ccc(Cl)cc1` (centres unmarked) [Compound 11, 8-(4-chlorophenyl)-2-(2-methylpyrazolo[1,5-a]pyridin-3-yl)-4,6,7,8-tetrahydro-5H-[1,3]thiazolo[5,4-b]azepin-5-one], the inhibition at 1.11 µM was 71.6% in assay [1]; 5.2% in assay [2]; 60.3% in assay [3]; -4.2% in assay [4]; 36% in assay [5]. Also, the IC50 in assay [1] was in the range of 100 to 1000 nM.
As to `Clc1ccc(C2Cc3cn[nH]c3-c3sc(-c4ccncc4)cc32)cc1` (centres unmarked) [Compound 12, 5-(4-chlorophenyl)-7-pyridin-4-yl-4,5-dihydro-1H-thieno[3,2-g]indazole], the inhibition at 1.11 µM is 73.2% in assay [1]; 31% in assay [2]; 69% in assay [3]; -6% in assay [4]; 9.4% in assay [5]. Also, the 50% inhibitory concentration (IC50) in assay [1] fell in the range of 100 to 1000 nM.
For the molecule `O=C1CCCC(O)(c2ccc(Cl)cc2)c2cc(-c3ccncc3)sc21` (centres unmarked) [Compound 15, 4-(4-chlorophenyl)-4-hydroxy-2-pyridin-4-yl-4,5,6,7-tetrahydro-8H-cyclohepta[b]thiophen-8-one], the inhibition at 1.11 µM in assay [1] worked out at 65%; in assay [2], 4%; in assay [3] it was 26.4%; in assay [4], 2%; in assay [5], 3.1%. Further, in assay [1], the half-maximal inhibitory concentration (IC50) is 100 to 1000 nM.
`CC1=CC(=O)Nc2sc(-c3ccncc3)cc2C1(C)c1ccc(Cl)cc1` (centres unmarked) [Compound 17, 4-(4-chlorophenyl)-4,5-dimethyl-2-pyridin-4-yl-4,8-dihydro-7H-thieno[2,3-b]azepin-7-one]: the inhibition at 1.11 µM came out at 96.8% in assay [1]; 8.6% in assay [2]; 47.9% in assay [3]; 28.5% in assay [4]; 12.4% in assay [5]. Also, the IC50 in assay [1] is < 100 nM.
Regarding `O/N=C1/CCC(c2ccc(Cl)cc2)c2cc(-c3ccncc3)sc21` (centres unmarked) [Compound 18, (7Z)-4-(4-chlorophenyl)-2-pyridin-4-yl-5,6-dihydro-1-benzothiophen-7(4H)-one oxime], the inhibition at 1.11 µM in assay [1] is 104%; in assay [2] it was 21.5%; in assay [3], 53.8%; in assay [4] it was -4.1%; in assay [5], 18.8%. The IC50 in assay [1] was < 100 nM.
For `O=C1CCCC(c2ccc(Cl)cc2)c2cc(-c3ccncc3)sc21` (centres unmarked) [Compound 19, 4-(4-chlorophenyl)-2-pyridin-4-yl-4,5,6,7-tetrahydro-8H-cyclohepta[b]thiophen-8-one], the inhibition at 1.11 µM in assay [1] was 86.5%; in assay [2] it was 8.1%; in assay [3], 43.1%; in assay [4] it was -6.8%; in assay [5] it was -0.4%. The concentration for half-maximal inhibition (IC50) in assay [1] was in the range of 100 to 1000 nM.
Take `Cc1nn2ccccc2c1-c1nc2c(s1)C(=O)CCC2c1ccc(Cl)cc1` (centres unmarked) [Compound 20, 4-(4-chlorophenyl)-2-(2-methylpyrazolo[1,5-a]pyridin-3-yl)-5,6-dihydro-1,3-benzothiazol-7(4H)-one]: the inhibition at 1.11 µM was found to be 68.2% in assay [1]; 6.6% in assay [2]; 60.4% in assay [3]; 0.9% in assay [4]; 23.6% in assay [5]. In addition, in assay [1], the half-maximal inhibitory concentration (IC50) fell in the range of 100 to 1000 nM.
Regarding `O=C1CC(c2ccc(Cl)cc2)c2cc(-c3ccncc3)sc21` (centres unmarked) [Compound 23, 4-(4-chlorophenyl)-2-(pyridin-4-yl)-4H-cyclopenta[b]thiophen-6(5H)-one], the inhibition at 1.11 µM in assay [1] was 92.8%; in assay [2] it was 10.9%; in assay [3] it was 23%; in assay [4], -2%; in assay [5] it was 3.1%. The IC50 in assay [1] was in the range of 100 to 1000 nM.
Regarding `O/N=C1\CCC(c2ccc(Cl)cc2)c2cc(-c3ccncc3)sc21` (centres unmarked) [Compound 24], the inhibition at 1.11 µM in assay [1] is 98.1%; in assay [2] it was 16.9%; in assay [3], 54.2%; in assay [4], -6.9%; in assay [5], 13.8%.
For the molecule `O=S1(=O)NC=C(c2ccc(Cl)cc2)c2cc(-c3ccncc3)sc21` [Compound 27, 4-(4-chlorophenyl)-6-pyridin-4-yl-2H-thieno[3,2-e][1,2]thiazine 1,1-dioxide], the inhibition at 1.11 µM stood at 98.3% in assay [1]; 12.3% in assay [2]; 46% in assay [3]; 8.5% in assay [4]; 4.9% in assay [5]. Besides, in assay [1], the 50% inhibitory concentration (IC50) lay within 100 to 1000 nM.
With `O=C1CC(c2ccc(Cl)cc2)c2cc(N3CCOCC3)sc21` (centres unmarked) [Compound 28, 4-(4-chlorophenyl)-2-morpholino-4H-cyclopenta[b]thiophen-6(5H)-one], the inhibition at 1.11 µM was found to be 105% in assay [1], 75% in assay [3] and 15.7% in assay [5]. Also, in assay [1], the half-inhibitory concentration (IC50) is < 100 nM. For the same molecule, the PI3Kgamma % inh in assay [2] is recorded as 23.550%. Besides, in assay [4], the VPS34 % ihn is 8.600%.
On to `O=C1NCC(c2ccc(Cl)cc2)c2cc(-c3ccncc3)sc21` (centres unmarked) [Compound 30], for which the inhibition at 1.11 µM amounted to 94.9% in assay [1], 11.2% in assay [2], 36% in assay [3] and 6.3% in assay [5]. Further, the IC50 in assay [1] is < 100 nM. Also, the VPS34 % ihn in assay [4] is −0.200%.
On to `O=C1NCCCC(c2ccc(Cl)cc2)c2cc(-c3ccncc3)sc21` (centres unmarked) [Compound 31], for which the inhibition at 1.11 µM in assay [1] is 83.3%; in assay [2] it was 6.9%; in assay [3] it was 50.5%; in assay [4] it was 2%; in assay [5] it was 16.6%. Besides, in assay [1], the IC50 lay within 100 to 1000 nM.
For the molecule `O=C1CC(c2ccc(Cl)cc2F)c2cc(N3CCOCC3)sc21` (centres unmarked) [Compound 117], the inhibition at 1.11 µM turned out to be 101% in assay [1]; 35.5% in assay [2]; 81.2% in assay [3]; 6.21% in assay [4]; 26.6% in assay [5].
Consider `CN(C)C(=O)[C@@H]1NC(=O)c2sc(N3CCOCC3)cc2[C@H]1c1ccc(Cl)cc1` [Compound 125], for which the inhibition at 1.11 µM turned out to be 71.8% in assay [1]; 16.7% in assay [2]; 44.5% in assay [3]; 24.4% in assay [4]; 22.6% in assay [5].
In the case of `NC(=O)[C@@H]1NC(=O)c2sc(N3CCOCC3)cc2[C@H]1c1ccc(Cl)cc1` [Compound 126], the PI3Kbeta % inh in assay [1] was found to be 98.08%. In assay [2], this molecule displayed a PI3Kgamma % inh of 36.62%. The molecule further displayed a PI3Kdelta % inh in assay [3] of 75.35%. Further, in assay [4], the VPS34 % ihn is reported as 26.74%. The molecule further gave a PI3Kalpha % inh in assay [5] of 39.72%.
For the molecule `O=C1NCC(c2ccc(Cl)cc2)c2cc(N3CCOCC3)sc21` (centres unmarked) [Compound 128], in assay [1], the PI3Kbeta % inh is on record as 107.54%. Further, the inhibition at 1.11 µM came out at 45.9% in assay [2], 87% in assay [3] and 36.3% in assay [4]. The PI3Kalpha % inh in assay [5] was 18.03%.
In assay [1], `O=C1CCC(O)C(c2ccc(Cl)cc2)c2cc(-c3ccncc3)sc21` (centres unmarked) [Compound 129] showed a PI3Kbeta % inh of 59.86%. The molecule further had a PI3Kgamma % inh in assay [2] of 3.89%. The PI3Kdelta % inh in assay [3] is 26.46%. Moreover, the VPS34 % ihn in assay [4] is −2.80%. Moreover, the PI3Kalpha % inh in assay [5] is reported as 2.32%.
As for `N#Cc1c(N2CCOCC2)sc2c1C(c1ccc(Cl)cc1)NC2=O` (centres unmarked) [Compound 134, 4-(4-chlorophenyl)-2-(morpholin-4-yl)-6-oxo-5,6-dihydro-4H-thieno[2,3-c]pyrrole-3-carbonitrile], the inhibition at 1.11 µM came to 93.8% in assay [1]; 32.2% in assay [2]; 76.5% in assay [3]; 9.44% in assay [4]; 33% in assay [5].
